Results from patent US11285132B2, “Uses of indolinone compounds” (Oncternal Therapeutics, Inc., priority 2016, dated 2022).
pEC50, pIC50: −log10 of the molar value.

Legend:
Assay type in all cases: cell-based
IRF4 = assay: Protein levels in cells; conditions: similarly to lenalidomide
Excerpt: (§1) With the aim to understand the mechanism of action of YK-4-279 and TK-216, the baseline RNA expression levels of the different ETS factors were correlated with sensitivity to the drugs. SPIB was the gene presenting the most significant negative correlation with both YK-4-279 and TK-216, especially among the ABC DLBCL cell lines (P<0.05). SPIB is a known oncogene for ABC DLBCL (Lenz et al, PNAS 2008) and is involved in the response to lenalidomide in ABC DLBCL (Yang et al, Cancer Cell 2012). YK-4-279 inhibits the binding of EWS1-FLI1 to the helicases RHA and DDX5 (Selvanathan et al, PNAS 2012). Thus, it was assessed whether YK-4-279 and TK-216 can have a similar effect on SPIB and whether they induce cellular effects similar to lenalidomide. […] In ABC DLBCL, the ETS inhibitor YK-4-279 and its clinical derivative TK-216 interfere with SPIB and helicases involved in RNA editing. Moreover, both compounds act similarly to lenalidomide inhibiting IRF4 and upregulating IRF7 and synergize with the IMID in both ABC DLBCL and MCL.

IRF7 = assay: Protein levels in cells; conditions: similarly to lenalidomide
Excerpt: as §1

DLBCL cell lines [1] = assay: Combination with other targeted agents, summary over DLBCL cell lines
Procedure: The latter synergism could be linked to the previously mentioned negative trend between TK-216 IC50 values and the presence of BCL2 translocation.
(§2) Cell lines were exposed to YK-4-279 or TK-216, alone or in combination with other compounds, for 72 h using a Tecan D300e Digital Dispenser and 96 well plates. Cell proliferation was measured with MTT. Synergy was determined with the Chou-Talalay combination index. Gene expression profiling (GEP) was performed with the Illumina HumanHT 12 Expression BeadChips. In vivo studies were done in NOD-SCID mice and treatments started with 60 mm3 tumor volumes sc.
Since lenalidomide is active in mantle cell lymphoma (MCL), the synergism of the combination of TK-216 and lenalidomide was confirmed also in two MCL cell lines.

Kasumi-1 = assay: 72 hr CellTiter-Glo, AML cell line; conditions: Homo sapiens
DOHH2 = assay: 72 hr CellTiter-Glo, DLBCL cell line; conditions: Homo sapiens, DOHH-2
TMD-8 = assay: 72 hr CellTiter-Glo, DLBCL cell line; conditions: Homo sapiens, TMD8
DLBCL cell lines [2] = assay: Apoptosis by cleaved-Caspase 3 detection; conditions: various concentrations, 18 h
Procedure: Cells were treated with various concentrations of TK216 for 18 h and apoptosis was assessed by detection of cleaved-Caspase 3.

MOLM-13 = assay: 72 hr CellTiter-Glo, AML cell line; conditions: Homo sapiens
HL-60 = assay: 72 hr CellTiter-Glo, AML cell line; conditions: Homo sapiens
OCI-LY-10 = assay: Combination with other agents, MTT, Chou-Talalay combination index
Excerpt: (§3) Y-axis: CI values. In each box-plot, the line in the middle of the box represents the median and the box extends from the 25th to the 75th percentile (interquartile range, IQ); the whiskers extend to the upper and lower adjacent values (i.e., ±1.5 IQ); outside values have been omitted from the figure. CIs for TK-216/rituximab in TMD8, TK-216/rituximab in Karpas422, TK-216/rituximab in OCI-LY-10 are not plotted due to CI values >3. Combinations tested included bendamustine, bortezomib, ibrutinib, idelalisib, lenalidomide, OTX015 (birabresib, CAS No. 202590-98-5), PQR309 (bimiralisib, CAS No. 1225037-39-7 (free base)), selinexor, venetoclax, and vincristine.
as §2

KARPAS422 = assay: as above
Excerpt: as §3, §2

SU-DHL-4 = assay: as above
Excerpt: as §3, §2

TMD8 = assay: as above
Excerpt: as §3, §2

THP-1 = assay: 72 hr CellTiter-Glo, AML cell line; conditions: Homo sapiens
[3] = test system: DLBLC cell lines (TMD8, HBL1, U2932); assay: Dose-effect testing in combination with venetoclax
Excerpt: In each of FIGS. 13-15, the top curve (×) was for the combination therapy, the middle curve (⊚) was for TK216, and the bottom curve (+) was for venetoclax. FIG. 13 is a dose-effect curve for TK216 in combination with venetoclax in the TMD8 cell line. FIG. 14 is a dose-effect curve for TK216 in combination with venetoclax in the U2932 cell line. FIG. 15 is a dose-effect curve for TK216 in combination with venetoclax in the HLB1 cell line.

A4573 cells = assay: Proliferation of Ewing sarcoma A4573 cell line; conditions: A4573 cells (EWS-FLI1 expressing Ewing sarcoma cell line); read-out: EC50, inhibition of proliferation
Excerpt: TK216 is a first in class, small molecule that directly binds EWS-FLI1 inhibiting the biological activity of ETS-family transcription factor oncoproteins and is currently under clinical investigation in patients with Ewing sarcoma.

Compound: O=C(CC1(O)C(=O)Nc2c(Cl)ccc(Cl)c21)c1ccc(C2CC2)cc1 (stereo not shown) [TK216, 4,7-Dichloro-3-(2-(4-cyclopropylphenyl)-2-oxoethyl)-3-hydroxyindolin-2-one]
- IRF4 protein in cells (IRF4): decreased IRF4
- IRF7 protein in cells (IRF7): upregulated IRF7
- combination of TK-216 with the BET inhibitor OTX015 (MK-8628) (DLBCL cell lines [1]; with OTX015, DLBCL cell lines): synergism in 2/4 cells and additive effect in 1/4 cells
- combination of TK-216 with the immunomodulator lenalidomide (DLBCL cell lines [1]; with lenalidomide, activated B cell type DLBCL): synergism in 2/2 activated B cell type DLBCL
- combination of TK-216 with the anti-CD20 monoclonal antibody rituximab (DLBCL cell lines [1]; with rituximab, DLBCL cell lines): synergism in 2/3 cells
- combination of TK-216 with the BCL2 inhibitor venetoclax (DLBCL cell lines [1]; with venetoclax, DLBCL cell lines): synergism in 3/4 cells
- pIC50 (Kasumi-1): 6.41
- pIC50 (DOHH2): 6.80
- pIC50 (TMD-8): 6.82
- apoptosis (cleaved-Caspase 3) (DLBCL cell lines [2]): induced apoptosis
- pIC50 (MOLM-13): 6.64
- pIC50 (HL-60): 6.44
- effect of TK216 in combination with OTX015 (OCI-LY-10; with OTX015): additive effect
- effect of TK216 in combination with PQR309 (OCI-LY-10; with PQR309): No benefit effects
- effect of TK216 in combination with bendamustine (OCI-LY-10; with bendamustine): No benefit effects
- effect of TK216 in combination with bortezomib (OCI-LY-10; with bortezomib): No benefit effects
- effect of TK216 in combination with ibrutinib (OCI-LY-10; with ibrutinib): additive effect
- effect of TK216 in combination with idelalisib (OCI-LY-10; with idelalisib): Synergism
- effect of TK216 in combination with lenalidomide (OCI-LY-10; with lenalidomide): Synergism
- CI values, TK-216/rituximab (OCI-LY-10; with rituximab, not plotted): > 3
- effect of TK216 in combination with selinexor (OCI-LY-10; with selinexor): No benefit effects
- effect of TK216 in combination with venetoclax (OCI-LY-10; with venetoclax): Synergism
- effect of TK216 in combination with vincristine (OCI-LY-10; with vincristine): additive effect
- effect of TK216 in combination with OTX015 (KARPAS422; KARPAS422, with OTX015): Synergism
- effect of TK216 in combination with PQR309 (KARPAS422; KARPAS422, with PQR309): additive effect
- effect of TK216 in combination with bendamustine (KARPAS422; KARPAS422, with bendamustine): additive effect
- effect of TK216 in combination with idelalisib (KARPAS422; KARPAS422, with idelalisib): Synergism
- effect of TK216 in combination with selinexor (KARPAS422; KARPAS422, with selinexor): additive effect
- effect of TK216 in combination with venetoclax (KARPAS422; KARPAS422, with venetoclax): Synergism
- effect of TK216 in combination with vincristine (KARPAS422; KARPAS422, with vincristine): additive effect
- CI values, TK-216/rituximab (KARPAS422; Karpas422, with rituximab, not plotted): > 3
- effect of TK216 in combination with OTX015 (SU-DHL-4; with OTX015): No benefit effects
- effect of TK216 in combination with PQR309 (SU-DHL-4; with PQR309): additive effect
- effect of TK216 in combination with bendamustine (SU-DHL-4; with bendamustine): No benefit effects
- effect of TK216 in combination with idelalisib (SU-DHL-4; with idelalisib): No benefit effects
- effect of TK216 in combination with selinexor (SU-DHL-4; with selinexor): No benefit effects
- effect of TK216 in combination with venetoclax (SU-DHL-4; with venetoclax): No benefit effects
- effect of TK216 in combination with vincristine (SU-DHL-4; with vincristine): Synergism
- effect of TK216 in combination with OTX015 (TMD8; with OTX015): additive effect
- effect of TK216 in combination with PQR309 (TMD8; with PQR309): additive effect
- effect of TK216 in combination with bendamustine (TMD8; with bendamustine): No benefit effects
- effect of TK216 in combination with bortezomib (TMD8; with bortezomib): Synergism
- effect of TK216 in combination with ibrutinib (TMD8; with ibrutinib): additive effect
- effect of TK216 in combination with lenalidomide (TMD8; with lenalidomide): Synergism
- effect of TK216 in combination with lidelalisib (TMD8; with lidelalisib): additive effect
- CI values, TK-216/rituximab (TMD8; with rituximab, not plotted): > 3
- effect of TK216 in combination with selinexor (TMD8; with selinexor): additive effect
- effect of TK216 in combination with venetoclax (TMD8; with venetoclax): Synergism
- effect of TK216 in combination with vincristine (TMD8; with vincristine): No benefit effects
- pIC50 (THP-1): 6.82
- combination effect with venetoclax, dose-effect [3]: synergistic effect across doses
- pEC50 (A4573 cells): > 6.70
